# Results as given in patent EP1038880B1, “Androstanes and pregnanes for allosteric modulation of GABA receptor” (priority 1994, dated 1995).
# Where two headings read alike, the source gives them in different places.
# Assays:
# [1] = system: mice; test: Loss-of-righting reflex (anesthetic activity); format: in vivo; conditions: iv
# Experimental: The compounds of and used in the invention can also be used for anesthetic indications at high doses. However, the preferred route of administration to induce anesthesia is intravenous (i.v.) administration. In animals, a drug's anesthetic properties is measured by the drug's ability to produce a loss-of-righting reflex. The loss-of-righting reflex is defined as the inability of an animal to right itself within […] on its back. Mice were administered drug i.v. in the lateral tail vein. Following administration, mice were placed on their backs and observed for loss-of-righting reflex. Table 12. Anesthetic Activity of Neuroactive Steroids in Mice
# [2] = system: tonic seizure; test: Maximal electroshock test; format: in vivo; conditions: Mus musculus, ip, steroids i.p., mice
# Experimental: (§1) The anticonvulsant tests are similar to that described above. […] The number of animals with tonic and/or clonic convulsions was recorded. In the maximal electroshock test, 50 mA of current at 60 Hz was delivered through corneal electrodes for 200 msec to induce tonic seizure. The ability of compounds to abolish the tonic component was defined as the endpoint. General CNS depression potential was determined by a rotorod test 10 minutes after the injection of compounds where the number of mice staying on a rotating (6 rpm) rod for 1 minute in one of the three trials was determined. […] Table 7. Anticonvulsant Activity of Exemplified Neuroactive Steroids and those of Selected Clinically Useful Anticonvulsants in Mice
# [3] = system: picrotoxin; test: Anticonvulsant test against picrotoxin; format: in vivo, mice; conditions: Mus musculus, read-out: ED50 PICRO
# Experimental: as §1
# [4] = system: metrazol induced convulsions; test: animal or person; format: in vivo, mice; conditions: Mus musculus; metrazol 85 mg/kg s.c., steroids i.p., mice
# [5] = system: Bovine Uteral Progesterone Receptors; test: Inhibition of 3H-progesterone binding, uterus cytosol; conditions: competitor 10^-6M; 3H-progesterone 0.15 nM
# Experimental: The data presented were obtained by performing assays in accordance with the procedures described in et al. 1988 previously to determine the effect of progesterone metabolites and their derivatives and the progestin R5020 on the binding of [^3H]R5020 to the progesterone receptor in rat uterus (Gee et al. 1988).
# ^3H-progesterone (0.15 nM) was incubated with the rat uterus cytosol in the presence of the test compounds. The specific binding were determined after incubation and compared to the control incubation without the compounds. The data are expressed as percent inhibition of binding.
# In Table 3, rats were adrenalectomized 3 days prior to sacrifice. To isolate the mineralocorticoid receptor, brain cytosol fractions were prepared as describe in Gee, et al. 1988. The drugs were incubated with 3 nM of ^3H-aldosterone (the specific ligand for the mineralocorticoid receptor) in the presence of the selective type II agonist RU28362 (0.5 µM) which blocks ^3H-aldosterone binding to the type II (glucocorticoid) receptors. Table 2. Inhibition of 3H-Progesterone Binding to the Bovine Uteral Progesterone Receptors
# [6] = biological target: T1, Glucocorticoid Receptors (Rattus norvegicus, UniProt P06536); test: Inhibition of 3H-dexamethasone binding, brain cytosol; design: species or system rats; dose or concentration left out as unconfirmed; conditions: read-out: % of Inhibition
# T1 construct: from tissue; host or cells: rat brain cytosol
# T1 sequence (P06536 1-795): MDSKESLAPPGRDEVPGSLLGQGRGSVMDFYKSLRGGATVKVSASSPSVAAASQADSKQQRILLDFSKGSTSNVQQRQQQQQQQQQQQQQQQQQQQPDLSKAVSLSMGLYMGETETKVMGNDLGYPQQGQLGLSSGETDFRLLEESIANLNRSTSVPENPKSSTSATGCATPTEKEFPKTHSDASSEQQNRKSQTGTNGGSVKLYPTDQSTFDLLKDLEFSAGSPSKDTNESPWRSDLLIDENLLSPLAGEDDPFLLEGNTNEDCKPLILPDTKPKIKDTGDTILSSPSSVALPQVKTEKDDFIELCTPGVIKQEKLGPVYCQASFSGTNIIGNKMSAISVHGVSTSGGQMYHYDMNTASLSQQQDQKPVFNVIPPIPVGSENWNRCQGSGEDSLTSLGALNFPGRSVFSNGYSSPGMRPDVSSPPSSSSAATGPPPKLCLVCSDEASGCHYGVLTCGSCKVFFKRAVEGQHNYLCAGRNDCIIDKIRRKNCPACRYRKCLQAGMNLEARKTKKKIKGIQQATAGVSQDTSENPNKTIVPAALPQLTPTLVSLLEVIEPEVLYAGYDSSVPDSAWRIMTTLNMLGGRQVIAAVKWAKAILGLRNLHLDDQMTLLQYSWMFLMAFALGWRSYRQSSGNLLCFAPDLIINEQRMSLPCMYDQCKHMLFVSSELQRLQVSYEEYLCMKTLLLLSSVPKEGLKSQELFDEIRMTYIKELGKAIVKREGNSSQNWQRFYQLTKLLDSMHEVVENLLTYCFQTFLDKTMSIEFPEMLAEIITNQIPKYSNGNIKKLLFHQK
# Experimental: (§2) Various hormonal activities of representative neuroactive steroids were further studied through testing their potential estrogenic, mineralocorticoid and glucocorticoid activities. These activities were analyzed by monitoring the ability of the compounds to inhibit binding of the steroid hormones to their respective hormone receptors.
# For Table 4, brain cytosol fractions were prepared as for Table 3, and the compounds were incubated with 3 nM of ^3H-dexamethasone (the specific ligand for the glucocorticoid receptor).
# [7] = system: (+)bicuculline; test: Anticonvulsant test against (+)bicuculline; format: in vivo, mice; conditions: Mus musculus, read-out: ED50 BIC
# Experimental: as §1
# [8] = system: strychnine; test: Anticonvulsant test against strychnine; format: in vivo, mice; conditions: Mus musculus, read-out: ED50 STR
# Experimental: as §1
# [9] = biological target: T2, Hippocampal Mineralocorticoid Receptors (Rattus norvegicus, UniProt P22199); test: Inhibition of 3H-aldosterone binding, brain cytosol; design: species or system rats; conditions: competitor 10^-6M; 3 nM 3H-aldosterone, RU28362 0.5 µM
# T2 construct: To isolate the mineralocorticoid receptor, brain cytosol fractions were prepared; from tissue; host or cells: rat brain (hippocampal) cytosol
# T2 sequence (P22199 1-981): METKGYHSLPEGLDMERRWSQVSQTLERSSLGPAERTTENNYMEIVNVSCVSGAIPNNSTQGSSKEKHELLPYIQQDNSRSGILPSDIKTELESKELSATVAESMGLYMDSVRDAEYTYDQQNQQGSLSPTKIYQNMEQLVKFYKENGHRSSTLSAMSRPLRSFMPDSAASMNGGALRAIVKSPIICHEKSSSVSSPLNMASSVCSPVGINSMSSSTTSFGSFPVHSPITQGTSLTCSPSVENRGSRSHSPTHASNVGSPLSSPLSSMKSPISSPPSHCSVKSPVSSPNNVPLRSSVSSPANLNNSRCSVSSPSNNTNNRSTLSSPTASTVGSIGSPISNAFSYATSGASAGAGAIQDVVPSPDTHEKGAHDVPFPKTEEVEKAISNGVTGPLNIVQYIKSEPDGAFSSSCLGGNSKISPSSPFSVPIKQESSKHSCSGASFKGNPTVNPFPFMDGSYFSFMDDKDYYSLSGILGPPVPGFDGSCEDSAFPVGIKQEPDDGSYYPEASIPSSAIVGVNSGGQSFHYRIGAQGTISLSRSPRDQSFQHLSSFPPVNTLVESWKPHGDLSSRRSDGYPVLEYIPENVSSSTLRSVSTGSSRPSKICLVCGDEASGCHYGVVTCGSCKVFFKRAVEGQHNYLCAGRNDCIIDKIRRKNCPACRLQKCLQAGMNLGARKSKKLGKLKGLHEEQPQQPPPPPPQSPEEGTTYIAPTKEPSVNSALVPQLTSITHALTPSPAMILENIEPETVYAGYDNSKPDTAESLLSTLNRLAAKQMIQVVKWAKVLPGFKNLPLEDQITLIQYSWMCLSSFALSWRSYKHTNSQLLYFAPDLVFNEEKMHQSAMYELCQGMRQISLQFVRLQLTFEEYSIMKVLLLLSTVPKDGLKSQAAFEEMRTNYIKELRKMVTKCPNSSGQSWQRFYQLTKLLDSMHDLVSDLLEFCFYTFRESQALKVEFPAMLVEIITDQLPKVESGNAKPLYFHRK
# Experimental: as §2
# In Table 3, rats were adrenalectomized 3 days prior to sacrifice. […] Table 2. Inhibition of 3H-Progesterone Binding to the Bovine Uteral Progesterone Receptors
# Table 3. Inhibition of 3H-Aldosterone Binding to Hippocampal Mineralocorticoid Receptors
# [10] = system: mice; conditions: data from Swinyard & Woodhead 1982; cited from earlier work
# [11] = system: tonic seizure; conditions: cited from earlier work
# [12] = system: picrotoxin; conditions: cited from earlier work
# [13] = system: (+)bicuculline; conditions: cited from earlier work
# [14] = system: metrazol induced convulsions; conditions: cited from earlier work
# [15] = biological target: T3, Bovine Uteral Estrogen Receptors (Bos taurus, UniProt P49884); test: Inhibition of 3H-estradiol binding, uteri cytosol; conditions: competitor 10^-6M; 3H-estradiol 0.15 nM
# T3 construct: from tissue; host or cells: bovine uteri cytosol
# T3 sequence (P49884 1-596): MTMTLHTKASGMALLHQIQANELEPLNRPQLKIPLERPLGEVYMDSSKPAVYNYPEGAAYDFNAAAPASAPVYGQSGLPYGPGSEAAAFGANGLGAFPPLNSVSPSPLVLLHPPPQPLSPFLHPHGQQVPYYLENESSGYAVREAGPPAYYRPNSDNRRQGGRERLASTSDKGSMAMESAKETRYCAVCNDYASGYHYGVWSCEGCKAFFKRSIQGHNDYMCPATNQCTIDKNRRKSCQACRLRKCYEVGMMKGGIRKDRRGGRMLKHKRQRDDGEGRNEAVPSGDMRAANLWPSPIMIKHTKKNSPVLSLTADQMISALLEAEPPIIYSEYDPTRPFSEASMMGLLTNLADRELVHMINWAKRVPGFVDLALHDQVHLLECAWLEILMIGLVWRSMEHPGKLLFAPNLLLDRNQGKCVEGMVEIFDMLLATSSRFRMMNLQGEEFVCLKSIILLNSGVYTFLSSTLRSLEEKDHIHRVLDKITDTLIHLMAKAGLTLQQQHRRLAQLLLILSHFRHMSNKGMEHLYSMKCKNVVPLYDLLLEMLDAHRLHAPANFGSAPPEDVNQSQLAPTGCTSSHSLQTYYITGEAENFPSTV
# [16] = system: N.I.H. Swiss-Webster mice; test: Light/dark transition test; format: in vivo; conditions: IP, 10 min test, vs control, Dunnett's t-test (Fig. 8)
# Experimental: Male N.I.H. Swiss-Webster mice (Harlan, Harlan, Indianapolis, IN) weighing 15-20 g were housed four per cage in polyethylene cages with sawdust bedding. The colony room was environmentally controlled (22°C) with a hr light/dark cycle (0600-1800hr). Food and water were available ad libitum, except during testing. The experiments were run from 0700-1500 hr and groups were counterbalanced for time of day effects. Mice were only administered drug or vehicle once.
# The apparatus included two 2-compartment automated test chambers (Model RXYZCM16, Omnitech Electronics, Columbus, OH). The open compartment was connected to the enclosed compartment via a 7.5 × 7.5 cm passageway. The open compartment was brightly lit using a 200 W incandescent light bulb. The experimental room was kept dark. Interruptions of the infrared beams in either chamber were automatically recorded by being linked to a computer through a Digiscan Analyzer (Omnitech and the data was analyzed using the Integrated Lab Animal Monitoring System (Omnitech Electronics). N.IH. Swiss-Webster mice were administered vehicle or test drug intraperiotoneally (IP),10 min later they were placed in the center of the lit compartment. The number of transitions between the lit and dark chambers, total activity in the lit chamber and the time spent in the lit chamber were measured during a 10 min test period.
# [17] = system: strychnine; conditions: convulsant i.v.; data from Worms et al. 1982; cited from earlier work
# [18] = data from Swinyard & Woodhead 1982
# [19] = convulsant i.v., data from Worms et al. 1982
molecule,measurement,setting,value
CC(=O)[C@H]1CC[C@H]2[C@@H]3CC[C@H]4C[C@H](O)CC[C@]4(C)C3=CC[C@]12C [3α-Hydroxy-5α-pregn-9-en-20-one],Loss-of-Righting Reflex,[1]; 10 mg/kg,100
CC(=O)[C@H]1CC[C@H]2[C@@H]3CC[C@H]4C[C@](C)(O)CC[C@]4(C)[C@H]3CC[C@]12C [3α-hydroxy-3β-methyl-5α-pregnan-20-one],ED50,[2],> 100 mg/kg
same,ED50,[3],35.4 mg/kg
same,ED50,[4],6.3 mg/kg
same,% of Inhibition,[5],4%
same,inhibition,[6],0.6%
same,ED50,[7],61.9 mg/kg
same,ED50,[8],> 100 mg/kg
same,inhibition at 1 µM,[9],3.2%
CCC1(c2ccccc2)C(=O)NC(=O)NC1=O [Phenobarbital],ED50 RR,[10],69 mg/kg
O=C1CN=C(c2ccccc2Cl)c2cc([N+](=O)[O-])ccc2N1 [Clonazepam],ED50 MES,[11]; [18],93 mg/kg
same,ED50 PICRO,[12]; [18],0.043 mg/kg
same,ED50 BIC,[13]; [18],0.0086 mg/kg
same,ED50 RR,[10],0.184 mg/kg
same,ED50 MTZ,[14]; [18],0.009 mg/kg
CC(=O)[C@H]1CC[C@H]2[C@@H]3CC[C@@H]4C[C@@](O)(C#CCl)CC[C@]4(C)[C@H]3CC[C@]12C [3β-(Chloroethynyl)-3α-hydroxy-5β-pregnan-20-one],Loss-of-Righting Reflex,[1]; 20 mg/kg,100
"5α-pregnan-3β,20-trimethyl-3α,20-diol",% of Inhibition,[5],8%
same,% of Inhibition,[15],0%
same,% of Inhibition,[9],0%
"CC(=O)[C@H]1CC[C@H]2[C@@H]3CC[C@@H]4C[C@H](O)CC[C@]4(C)[C@H]3CC[C@]12C [5β-pregnan-3α-ol-20-one, 3α-OH-5β-pregnan-20-one]",% of Inhibition,[5],9%
same,"number of transitions between the dark box and the light box, in words",[16],significantly increased
NC(=O)CCC/N=C(\c1ccc(Cl)cc1)c1cc(F)ccc1O [Progabide],ED50 MES,[11]; data from Worms et al. 1982,75 mg/kg
same,ED50 PICRO,[12]; [19],105 mg/kg
same,ED50 BIC,[13]; [19],30 mg/kg
same,ED50 STR,[17],75 mg/kg
same,ED50 MTZ,[14]; [19],30 mg/kg
CO/C=C1/CC[C@H]2[C@@H]3CC[C@H]4C[C@H](O)CC[C@@H]4[C@H]3CC[C@]12C [3α-Hydroxy-17(Z)-methoxymethylene-19-nor-5α-androstane],Loss-of-Righting Reflex,[1]; 5 mg/kg,75
